Results reported in US10597388B2, “Pyridazinone herbicides” (FMC CORPORATION, priority 2014, dated 2020).

Key:
Assay in all cases: Test E greenhouse herbicide test, pre- and postemergence
Format in all cases: in vivo
[1] = test system: beggarticks (hairy beggarticks, Bidens pilosa)
Procedure, shortened: (§1)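 Scores (0–100, visual, vs controls) reflect greenhouse growth of 14 to 21 d after treatment. Application was pre-emergence to silt loam or post-emergence at the 1- to 4-leaf stage.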

[2] = test system: velvetleaf (Abutilon theophrasti); conditions: Preemergence
Procedure, shortened: as §1

[3] = test system: arrowleaf sida (Sida rhombifolia)
Procedure, shortened: as §1

[4] = test system: field bindweed (Convolvulus arvensis)
Procedure, shortened: as §1

[5] = test system: foxtail, giant (giant foxtail, Setaria faberii); conditions: Preemergence
Procedure, shortened: as §1

[6] = test system: surinam grass (Brachiaria decumbens); conditions: Preemergence
Procedure, shortened: as §1

[7] = test system: momingglory (Ipomoea coccinea); conditions: Preemergence
Procedure, shortened: as §1

[8] = test system: ragweed (common ragweed, Ambrosia elatior)
Procedure, shortened: as §1

[9] = test system: johnsongrass (Sorghum halepense); conditions: Preemergence
Procedure, shortened: as §1

[10] = test system: goosegrass (Eleusine indica); conditions: Preemergence
Procedure, shortened: as §1

[11] = test system: barnyardgrass (Echinochloa crus-galli)
Procedure, shortened: as §1

[12] = test system: sandbur (southem sandbur, Cenchrus echinatus)
Procedure, shortened: as §1

[13] = test system: crabgrass, large (large crabgrass, Digitaria sanguinalis); conditions: Preemergence
Procedure, shortened: as §1

[14] = test system: panicum, fall (fall panicum, Panicum dichotomiflorum)
Procedure, shortened: as §1

[15] = test system: kochia (Kochia scoparia)
Procedure, shortened: as §1

[16] = test system: nutsedge, yellow (yellow nutsedge, Cyperus esculentus); conditions: Preemergence
Procedure, shortened: as §1

[17] = 62 g ai/ha, Postemergence, scale 0 to 100 (0 no effect, 100 complete control)
[18] = 62 g ai/ha, Preemergence, scale 0 to 100 (0 no effect, 100 complete control)
[19] = 125 g ai/ha, Postemergence, scale 0 to 100 (0 no effect, 100 complete control)
[20] = 250 g ai/ha, Postemergence, scale 0 to 100 (0 no effect, 100 complete control)
[21] = Postemergence, 31 g ai/ha, visual, scale 0 no effect to 100 complete control
[22] = Preemergence, 31 g ai/ha, scale 0 to 100, 0 no effect, 100 complete control
[23] = Preemergence, 125 g ai/ha, visual, scale 0 no effect to 100 complete control
[24] = Preemergence, 250 g ai/ha, visual, scale 0 no effect to 100 complete control
[25] = 62 g ai/ha, scale 0 to 100 (0 no effect, 100 complete control)
[26] = 125 g ai/ha, scale 0 to 100 (0 no effect, 100 complete control)
[27] = 31 g ai/ha, scale 0 to 100, 0 no effect, 100 complete control
[28] = 250 g ai/ha, visual, scale 0 no effect to 100 complete control
[29] = 125 g ai/ha, visual, scale 0 no effect to 100 complete control
[30] = 125 g ai/ha, Preemergence, scale 0 to 100 (0 no effect, 100 complete control)

Cn1nc(Br)c(O)c(-c2cccc3ccccc23)c1=O [Compound 20]
Plant response rating, Beggarticks [1, 17]: 95 | Plant response rating, Beggarticks [1, 18]: 85 | Plant response rating, Beggarticks [1, 19]: 98 | Plant response rating, Beggarticks [1, 20]: 100 | Plant response rating, Beggarticks [1, 21]: 85 | Plant response rating, Beggarticks [1, 22]: 20 | Plant response rating, Beggarticks [1, 23]: 95 | Plant response rating, Beggarticks [1, 24]: 98 | Plant response rating, Velvetleaf [2, 25]: 65 | Plant response rating, Velvetleaf [2, 26]: 80 | Plant response rating, Velvetleaf [2, 27]: 0 | Plant response rating, Velvetleaf [2, 28]: 100 | Plant response rating, Arrowleaf Sida [3, 17]: 60 | Plant response rating, Arrowleaf Sida [3, 18]: 70 | Plant response rating, Arrowleaf Sida [3, 19]: 70 | Plant response rating, Arrowleaf Sida [3, 20]: 80 | Plant response rating, Arrowleaf Sida [3, 21]: 40 | Plant response rating, Arrowleaf Sida [3, 22]: 0 | Plant response rating, Arrowleaf Sida [3, 23]: 85 | Plant response rating, Arrowleaf Sida [3, 24]: 95 | Plant response rating, Field Bindweed [4, 17]: 85 | Plant response rating, Field Bindweed [4, 18]: 65 | Plant response rating, Field Bindweed [4, 19]: 90 | Plant response rating, Field Bindweed [4, 20]: 95 | Plant response rating, Field Bindweed [4, 21]: 75 | Plant response rating, Field Bindweed [4, 22]: 35 | Plant response rating, Field Bindweed [4, 23]: 85 | Plant response rating, Field Bindweed [4, 24]: 95 | Plant response rating, Foxtail, Giant [5, 25]: 20 | Plant response rating, Foxtail, Giant [5, 27]: 5 | Plant response rating, Foxtail, Giant [5, 29]: 75 | Plant response rating, Foxtail, Giant [5, 28]: 90 | Plant response rating, Surinam Grass [6, 25]: 65 | Plant response rating, Surinam Grass [6, 26]: 85 | Plant response rating, Surinam Grass [6, 27]: 10 | Plant response rating, Surinam Grass [6, 28]: 90 | Plant response rating, Morningglory [7, 25]: 75 | Plant response rating, Morningglory [7, 26]: 90 | Plant response rating, Morningglory [7, 27]: 20 | Plant response rating, Morningglory [7, 28]: 95 | Plant response rating, Ragweed [8, 17]: 75 | Plant response rating, Ragweed [8, 18]: 65 | Plant response rating, Ragweed [8, 19]: 85 | Plant response rating, Ragweed [8, 30]: 70 | Plant response rating, Ragweed [8, 20]: 80 | Plant response rating, Ragweed [8, 21]: 65 | Plant response rating, Ragweed [8, 22]: 30 | Plant response rating, Ragweed [8, 24]: 98 | Plant response rating, Johnsongrass [9, 27]: 0 | Plant response rating, Johnsongrass [9, 28]: 0 | Plant response rating, Goosegrass [10, 25]: 10 | Plant response rating, Goosegrass [10, 27]: 20 | Plant response rating, Goosegrass [10, 29]: 50 | Plant response rating, Goosegrass [10, 28]: 85 | Plant response rating, Barnyardgrass [11, 17]: 50 | Plant response rating, Barnyardgrass [11, 18]: 0 | Plant response rating, Barnyardgrass [11, 19]: 60 | Plant response rating, Barnyardgrass [11, 20]: 80 | Plant response rating, Barnyardgrass [11, 21]: 30 | Plant response rating, Barnyardgrass [11, 22]: 0 | Plant response rating, Barnyardgrass [11, 23]: 10 | Plant response rating, Barnyardgrass [11, 24]: 30 | Plant response rating, Sandbur [12, 17]: 20 | Plant response rating, Sandbur [12, 18]: 0 | Plant response rating, Sandbur [12, 19]: 30 | Plant response rating, Sandbur [12, 30]: 65 | Plant response rating, Sandbur [12, 20]: 40 | Plant response rating, Sandbur [12, 21]: 15 | Plant response rating, Sandbur [12, 22]: 0 | Plant response rating, Sandbur [12, 24]: 75 | Plant response rating, Crabgrass, Large [13, 25]: 35 | Plant response rating, Crabgrass, Large [13, 27]: 30 | Plant response rating, Crabgrass, Large [13, 29]: 35 | Plant response rating, Crabgrass, Large [13, 28]: 30 | Plant response rating, Panicum, Fall [14, 17]: 15 | Plant response rating, Panicum, Fall [14, 18]: 35 | Plant response rating, Panicum, Fall [14, 19]: 30 | Plant response rating, Panicum, Fall [14, 30]: 65 | Plant response rating, Panicum, Fall [14, 20]: 50 | Plant response rating, Panicum, Fall [14, 21]: 0 | Plant response rating, Panicum, Fall [14, 22]: 0 | Plant response rating, Panicum, Fall [14, 24]: 98 | Plant response rating, Kochia [15, 17]: 65 | Plant response rating, Kochia [15, 18]: 90 | Plant response rating, Kochia [15, 19]: 75 | Plant response rating, Kochia [15, 20]: 90 | Plant response rating, Kochia [15, 21]: 60 | Plant response rating, Kochia [15, 22]: 0 | Plant response rating, Kochia [15, 23]: 98 | Plant response rating, Kochia [15, 24]: 100 | Plant response rating, Nutsedge, Yellow [16, 25]: 50 | Plant response rating, Nutsedge, Yellow [16, 26]: 75 | Plant response rating, Nutsedge, Yellow [16, 27]: 0 | Plant response rating, Nutsedge, Yellow [16, 28]: 95
